Results reported in patent publication US6541463B1, “Inhibitors of type 5 and type 3 17β-hydroxysteroid dehydrogenase and methods for their use” (Endorecherche, Inc., priority 1998, dated 2003).
Like-named read-outs stand apart in the source and are kept apart here.

Tests used:
[1] = biological target: T1, human type 3 17β-hydroxysteroid dehydrogenase (Homo sapiens, UniProt P37058); test: Enzymatic assay for type 3 17β-HSD; format: biochemical
T1 construct: expressed in transfected cells; host or cells: 293 cells, transient transfection; microsomal fraction (100 000×g pellet)
T1 sequence (P37058 1-310): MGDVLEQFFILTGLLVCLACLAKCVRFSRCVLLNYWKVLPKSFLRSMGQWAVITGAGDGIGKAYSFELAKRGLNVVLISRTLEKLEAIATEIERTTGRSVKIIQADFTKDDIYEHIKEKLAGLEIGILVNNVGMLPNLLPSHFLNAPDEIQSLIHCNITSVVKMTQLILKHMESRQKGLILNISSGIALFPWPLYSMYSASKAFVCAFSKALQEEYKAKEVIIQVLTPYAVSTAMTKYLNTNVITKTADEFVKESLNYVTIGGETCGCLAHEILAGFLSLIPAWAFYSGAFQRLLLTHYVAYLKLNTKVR
From the text: Enzymatic assay for types 1, 2, and 3 17β-HSD and types 1 and 3 3α-HSD”. Lower numbers of IC50 are desirable. Blank means that a determination was not done. The % of inhibition at the concentration of 3.10^−6M determined in preliminary screening test is reported in square braquets.
Enzyme sources. 293 cells transiently transfected with expression vectors encoding types 1, 2 and 3 17β-HSD (Luu-The et al., J. Steroid Biochem. Molec. Biol., 55: 581-587, 1995), types 1 and 2 5α-reductase (Luu-The et al., J. Invest. Dermatol., 102: 221-226, 1994) and types 1 and 3 3α-HSD (Dufort et al. Biochem. Biophys. Res. Commun. 228: 474-479, 1996), using the calcium phosphate procedure (Kingston et al., In: Current Protocols in Molecular Biology. Edited by E. M. Ausbel, R. Brent, R. E. Kingston, D. D. Moore, J. G. Seidman, J. A. Smith, K. Struhl. John Wiley & Sons, New York, pp. 9.1.1-9.1.9, 1991; Luu-The et al., J. Invest. Dermatol., 102: 221-226, 1994). For assays using cell subfractions, cells were sonicated in 50 mM sodium phosphate buffer (pH 7.4), containing 20% glycerol and 1 mM EDTA and centrifuged at 10 000×g for 30 min before centrifugation for 100 000×g for 1 h to separate the mitochondrial and microsomal fractions, respectively. The cytosol fractions (100 000×g supernatant) was used to determine type 1 activity while the microsomal fraction (pellet at 100 000×g) was used for measurement of types 2 and 3 17β-HSD activities.
Incubation. The enzymatic reaction was carried out at 37° C. in 1 ml of 50 mM sodium phosphate buffer, pH 7.4, containing 20% glycerol, 1 mM EDTA, and 2 mM cofactors (NADPH or AND^+) for 1 h in the presence of 0.1 μM ^14C-labeled substrate: estrone and 4-dione for types 1 and […] 17β-HSD, respectively, testosterone for type 2 17β-HSD as well as types 1 and 2 5α-reductases, DHT for types 1 and 3 3α-HSD activities, and the indicated concentration of inhibitor.
Extraction of metabolites, migration on TLC and quantification were as described above for the assay of type 5 17β-HSD.

| SMILES | % of Inhibition of the Type 3 17β-HSD Activity ([1]; 3.10^−6 M inhibitor) [%] | % of Inhibition of the Type 3 17β-HSD Activity ([1]; 3.10^−7 M inhibitor) [%] | IC50 ([1]; Table 7, read-out: Inhibition of the Type 3 17β-HSD Activity IC50) [nM] | IC50 [1] [nM] | melting point [°C] |
| --- | --- | --- | --- | --- | --- |
| CCCCOc1ccc2c(c1)CC[C@@H]1[C@@H]2CC[C@]2(C)C(=O)CC[C@@H]12 [EM-1074, 3-Butyloxy-1,3,5(10)-estratrien-17-one] | 92 | 62 |  |  |  |
| CSCOc1ccc2c(c1)CC[C@@H]1[C@@H]2CC[C@]2(C)C(=O)CC[C@@H]12 [EM-1066, 3-Methylthiomethyloxy-1,3,5(10)-estratrien-17-one] | 93 | 63 |  |  |  |
| C[C@]12CC[C@](O)(CCc3ccccc3)C[C@@H]1CC[C@@H]1[C@@H]2CC[C@]2(C)C(=O)CC[C@@H]12 [EM-1324-CS, 3α-hydroxy-3β-phenylethyl-5α-androstane-17-one] |  |  | 31 ± 4 |  |  |
| COCCOc1ccc2c(c1)CC[C@@H]1[C@@H]2CC[C@]2(C)C(=O)CC[C@@H]12 [EM-1073, 3-Methyloxyethyloxy-1,3,5(10)-estratrien-17-one] | 87 | 51 |  |  |  |
| C[C@]12CC[C@](O)(Cc3ccccc3)C[C@@H]1CC[C@@H]1[C@@H]2CC[C@]2(C)C(=O)CC[C@@H]12 [CS-213, 3β-benzyl-3α-Hydroxy-5α-androstane-17-one] |  |  |  | 31 ± 4 |  |
| CSCCSc1ccc2c(c1)CC[C@@H]1[C@@H]2CC[C@]2(C)C(=O)CC[C@@H]12 [EM-1065, 3-Methylthioethylthio-Estra-1,3,5(10)-trien-17-one] | 94 | 63 |  |  | 74 |
| COCSc1ccc2c(c1)CC[C@@H]1[C@@H]2CC[C@]2(C)C(=O)CC[C@@H]12 [EM-1064, 3-Methoxymethylthio-Estra-1,3,5(10)-trien-17-one] | 92 | 62 |  |  | 55 |
| CCOCCOc1ccc2c(c1)CC[C@@H]1[C@@H]2CC[C@]2(C)C(=O)CC[C@@H]12 [EM-1071, 3-Ethyloxyethyloxy-1,3,5(10)-estratrien-17-one] | 91 | 73 |  |  |  |
| C[C@]12CC[C@@H](O)C[C@@H]1CC[C@@H]1[C@@H]2CC[C@]2(C)C(=O)CC[C@@H]12 [androsterone, reference compound] |  |  |  | 200 |  |
| COCOc1ccc2c(c1)CC[C@@H]1[C@@H]2CC[C@]2(C)C(=O)CC[C@@H]12 [EM-1070, 3-Methyloxymethyloxy-1,3,5(10)-estratrien-17-one] | 90 | 57 |  |  |  |
